Experiment: Dry powder particle sizing using a Malvern Mastersizer
Type: physicochemical
From the text: The following materials were used in the examples: mannitol (Spectrum Chemicals, New Brunswick, N.J., unless otherwise indicated), TWEENTM 80 (Spectrum Chemicals, New Brunswick, N.J.), celecoxib (Onbio, Ontario, Canada), Plasdone-C 15 (International Specialty Products, Wayne, N.Y.), budesonide (Byron Chemical Company, Long Island, N.Y.), dipalmitoyl phosphatidylcholine (DPPC) (Chemi S.p.a., Milan, Italy, unless otherwise indicated), PLGA (Boehringer Ingelheim Fine Chemicals, Ingelheim, Germany), ammonium bicarbonate (Spectrum Chemicals, Gardenia, Calif.), methylene chloride (EM Science, Gibbstown, N.J.), Fluticasone propionate ([…]., Mumbai, India), and lactose (Pharmatose […], DMV International, The Netherlands). The TWEENTM 80 is hereinafter referred to as “Tween80.” The volume average diameter of lactose (Pharmatose […]) was determined to be approximately 68 μm by dry powder particle sizing using a Malvern Mastersizer (Malvern Instruments Ltd., United Kingdom).

volume average diameter: approximately 68 μm
Compound: OC[C@H]1O[C@@H](O[C@H]2[C@H](O)[C@@H](O)C(O)O[C@@H]2CO)[C@H](O)[C@@H](O)[C@H]1O (stereo partly shown) [lactose (Pharmatose 325M), lactose]
